Tests used:
[1] = system: tripartite split-GFP (ipGFP1-9); experiment: ATP-mediated in vitro reconstitution of tripartite split-GFP (ssAPC + ipGFP1-9), fluorescence time course; type: biochemical; details: 10 mM of each nucleotide, 12 h incubation
Description: We prepared a 50 μL mixture containing 1 μM aptamer-peptide complex and 20 μM ipGFP1-9 in ATP binding buffer (ATPBB; 20 mM Tris, 300 mM NaCl and 5 mM MgCl2, pH 7.4). These mixtures were transferred to a 384-well black microplate (Greiner Bio One, Kremsmünster, Austria) and challenged with various concentrations of ATP (2–10 mM). Fluorescence intensities were measured over a time course of 20 h at 5 min intervals using the extended mode of Cytation 7 (BioTek, Winooski, VT, USA) with excitation/emission wavelengths of 488/525 nm.
To assess the functionality of the aptamer-split peptide conjugate for GFP function modulation, we performed a time-course in vitro reconstitution assay with ssAPC and split GFP1-9 in the presence of varying concentrations of ATP (Figure 2A). Our group previously reported an in vitro reconstitution application using intein-mediated purified split GFP1-9 (ipGFP1-9) with improved solubility and expression levels to provide evidence of compatibility for application in this study ([28]). […] In the absence of ATP, we observed a modest background signal that could yield a false-positive result at earlier time-points (Figure 2A, dark gray trace), although this could readily be distinguished as a negative result relative to ATP-containing samples at later time-points. […] As aforementioned, according to Kang et al., the performance of this ATP aptamer has been proven by measuring EC50 values in terms of ATP-induced structure-switching with different lengths of antisense DNAs (11–18 nt) ([27]).
We also verified the specificity of our system towards ATP as a trigger molecule by assessing its response to other nucleotides such as UTP, GTP and CTP under identical conditions. To validate the low false-positive rate of self-assembly or non-specific binding, we compared the recovered fluorescence intensities after 12 h of incubation with 10 mM of each nucleotide.
We subsequently evaluated the performance of our system in the context of sustained responsiveness to environmental ATP changes. We conducted an experiment in which we measured fluorescence intensity over time while adding extra ATP in 2 mM increments every 120 min, up to a final concentration of 10 mM.
To verify that the fluorescence signal resulted from ATP-induced structure-switching, we performed experiments with the aptamer-modulated split GFP, in which we included an inhibitory strand that was fully complementary to the ATP aptamer sequence. We first performed an assembly reaction with the ssAPC, ipGFP1-9, and ATP for 12 h to generate a strong fluorescent signal, after which we added the inhibitory strand at varying molar ratios relative to the ssAPC ranging from 1:5 to 1:20 (Figure 2D).

[2] = system: A549 human lung carcinoma cells; experiment: Live-cell imaging of the aptamer-modulated split GFP response to intracellular ATP; type: cell-based; details: cells treated with ssAPC/ipGFP1-9 and Oligomycin A, compared to untreated controls
Description: A549 human lung carcinoma cells were obtained from the Korean Cell Line Bank (Seoul, South Korea). The cells were cultured at 37°C and 5% CO2 in DMEM containing 10% FBS (v/v) and penicillin/streptomycin (Thermo Fisher Scientific, Waltham, MA, USA). A549 cells were seeded at a density of 1 × 10^4 cells/well in 96-well cell culture black plates (Greiner Bio One, Kremsmünster, Austria). After 24 h, the cells were transfected with naïve GFP, ipGFP1-9, and aptamer-peptide complexes using Lipofectamine 3000 (Thermo Fisher Scientific, Waltham, MA, USA) according to the manufacturer's instructions. The cells were imaged using the Cytation 7 Cell Imaging Multi-Mode Reader (BioTek Instruments, Winooski, VT, USA) with excitation/emission wavelengths of 488/525 nm for 24 h under cultivation conditions with 5% CO2 at 37°C. Images were analyzed using ImageJ software (https://imagej.nih.gov).
For starvation experiments, A549 cells were seeded at a density of 1 × 10^6 cells/dish in 100 mm^2 cell culture dishes. After incubation for 24 h, the medium was changed to DMEM without glucose. […] Intracellular ATP concentrations were measured using an ATP assay kit (Abcam, Cambridge, MA, USA) according to the manufacturer's instructions.
Finally, we assessed the functionality of aptamer-modulated split GFP to respond to intracellular ATP levels via the reassembly within cells. […]

Compound	fluorescence recovery of ssAPC/ipGFP1-9 assembly by nucleotide (specificity) [1]	intensity of green fluorescence of ssAPC/ipGFP1-9 after ATP depletion [2]
O=c1ccn([C@@H]2O[C@H](COP(=O)(O)OP(=O)(O)OP(=O)(O)O)[C@@H](O)[C@H]2O)c(=O)[nH]1 [UTP]	minimal response	
Oligomycin A		conspicuous decrease
Nc1ccn([C@@H]2O[C@H](COP(=O)(O)OP(=O)(O)OP(=O)(O)O)[C@@H](O)[C@H]2O)c(=O)n1 [CTP]	minimal response	
Nc1nc2c(ncn2[C@@H]2O[C@H](COP(=O)(O)OP(=O)(O)OP(=O)(O)O)[C@@H](O)[C@H]2O)c(=O)[nH]1 [GTP]	minimal response	
Nc1ncnc2c1ncn2[C@@H]1O[C@H](COP(=O)(O)OP(=O)(O)OP(=O)(O)O)[C@@H](O)[C@H]1O [ATP]	highly ATP-specific	

— publication PMC11317148, “DNA-controlled protein fluorescence: Design of aptamer-split peptide hetero-modulator for GFP to respond to intracellular ATP levels” (Nucleic Acids Research, 2024)
